Experiment: LogP by HPLC on reversed phase columns (EEC directive 79/831 Annex V.A8)
Assay type: physicochemical
Method: In the above tables, measurement of LogP values was performed according to EEC directive 79/831 Annex V.A8 by HPLC (High Performance Liquid Chromatography) on reversed phase columns with the following methods: • ^[a]
Calibration was done with straight-chain alkan2-ones (with 3 to 16 carbon atoms) with known LogP values (measurement of LogP values using retention times with linear interpolation between successive alkanones). Lambda-max-values were determined using UV-spectra from 200 nm to 400 nm and the peak values of the chromatographic signals.

Row | SMILES | LogP | chromatographic logP (reversed phase HPLC columns, given in the preparation examples, method not marked)
1 | CC(C)OC(=O)C1(C2(NC(=O)c3sc(Cl)c(Cl)c3Cl)CC2)CC1 [I.027] | 5.35^[a] | 
2 | O=C1CC(NC(=O)c2sc(Cl)c(Cl)c2Cl)CN1 (stereo not drawn) [I.028] | 1.86^[a] | 
3 | N#CC1(NC(=O)c2sc(Cl)c(Cl)c2Cl)CC1 [I.032] | 2.88^[a] | 
4 | CCOC(=O)CN(OC)C(=O)c1sc(Cl)c(Cl)c1Cl [I.018] | 3.64^[a] | 
5 | COC(=O)[C@@H](CC(N)=O)NC(=O)c1sc(Cl)c(Cl)c1Cl [I.014] | 2.11^[a] | 
6 | CN(CC#N)C(=O)C1(NC(=O)c2sc(Cl)c(Cl)c2Cl)CC1 [I.052] | 2.44^[a] | 
7 | CCOC(=O)C1(NC(=O)c2sc(Cl)c(Cl)c2Cl)CN(C(=O)OC(C)(C)C)C1 [I.057] | 4.47^[a] | 
8 | N#CC(Cc1ccccc1)NC(=O)c1sc(Cl)c(Cl)c1Cl (stereo not drawn) [I.035] | 4.13^[a] | 
9 | NC(=O)CC(NC(=O)c1sc(Cl)c(Cl)c1Cl)C(=O)O (stereo not drawn) [I.001] | 1.81^[a] | 
10 | CCOC(=O)C1(NC(=O)c2sc(Cl)c(Cl)c2Cl)CCCC1 [I.070] | 4.61^[a] | 
11 | O=C(CNC(=O)c1sc(Cl)c(Cl)c1Cl)Sc1ccccc1 [I.042] | 4.27^[a] | 
12 | NC(=O)C1(NC(=O)c2sc(Cl)c(Cl)c2Cl)CC1 [I.060] | 2.00^[a] | 
13 | CCSC(=O)C(CC(C)C)NC(=O)c1sc(Cl)c(Cl)c1Cl (stereo not drawn) [I.039] | 5.54^[a] | 
14 | CSCCC(NC(=O)c1sc(Cl)c(Cl)c1Cl)C(=O)O (stereo not drawn) [I.051] | 3.01^[a] | 
15 | CCSC(=O)C(NC(=O)c1sc(Cl)c(Cl)c1Cl)C(C)C (stereo not drawn) [I.040] | 5.34^[a] | 
16 | CCOC(=O)C(NC(=O)c1sc(Cl)c(Cl)c1Cl)OC (stereo not drawn) [I.017] | 3.57^[a] | 
17 | COC(=O)C(NC(=O)c1sc(Cl)c(Cl)c1Cl)(C1CC1)C1CC1 [I.005] | 4.51^[a] | 
18 | O=C(N[C@H]1CCSC1=O)c1sc(Cl)c(Cl)c1Cl [I.043] | 3.24^[a] | 
19 | O=C(NC1CCCNC1=O)c1sc(Cl)c(Cl)c1Cl (stereo not drawn) [I.031] | 2.20^[a] | 
20 | CCOC(=O)C1(C2(NC(=O)c3sc(Cl)c(Cl)c3Cl)CC2)CC1 [I.047] | 4.83^[a] | 
21 | O=C(NC1CCOC1=O)c1sc(Cl)c(Cl)c1Cl (stereo not drawn) [I.029] | 2.48^[a] | 
22 | O=C1SCCC1NC(=S)c1sc(Cl)c(Cl)c1Cl (stereo not drawn) [I.019] | 4.37^[a] | 

Row | SMILES | LogP | chromatographic logP (reversed phase HPLC columns, given in the preparation examples, method not marked)
23 | O=C(NC(Cc1c[nH]c2ccccc12)C(=O)O)c1sc(Cl)c(Cl)c1Cl (stereo not drawn) [I.003] | 3.31^[a] | 
24 | CN(CC#N)C(=O)CNC(=O)c1sc(Cl)c(Cl)c1Cl [I.063] | 2.62^[a] | 
25 | COC(=O)C(C1CC1)N(O)C(=O)c1sc(Cl)c(Cl)c1Cl (stereo not drawn) [I.021] | 3.00^[a] | 
26 | CN(C)C(=O)CNC(=O)c1sc(Cl)c(Cl)c1Cl [I.065] | 2.47^[a] | 
27 | CC1(C)SC(=O)C1NC(=O)c1sc(Cl)c(Cl)c1Cl (stereo not drawn) [I.024] | 4.04^[a] | 
28 | O=C(NC1CCNC1=O)c1sc(Cl)c(Cl)c1Cl (stereo not drawn) [I.004] | 1.98^[a] | 
29 | CCOC(=O)CCNC(=O)c1sc(Cl)c(Cl)c1Cl [I.026] | 3.46^[a] | 
30 | CCOC(=O)C1(CNC(=O)c2sc(Cl)c(Cl)c2Cl)CC1 [I.045] | 4.27^[a] | 
31 | NC(=O)CCC(NC(=O)c1sc(Cl)c(Cl)c1Cl)C(=O)O (stereo not drawn) [I.002] | 1.73^[a] | 
32 | O=C(CNC(=O)c1sc(Cl)c(Cl)c1Cl)SCc1ccccc1 [I.041] | 4.56^[a] | 
33 | O=C(NC1(C(=O)NO)CC1)c1sc(Cl)c(Cl)c1Cl [I.050] | 1.91^[a] | 
34 | O=C1CC(NC(=O)c2sc(Cl)c(Cl)c2Cl)CCN1 (stereo not drawn) [I.030] | 1.93^[a] | 
35 | N#CCNC(=O)CNC(=O)c1sc(Cl)c(Cl)c1Cl [I.062] | 2.21^[a] | 
36 | O=C(NC1(C(=O)O)CC1)c1sc(Cl)c(Cl)c1Cl [1-{[(3,4,5-trichloro-2-thienyl)carbonyl]amino}cyclopropanecarboxylic acid] |  | 2.39
37 | CCSC(=O)CNC(=O)c1sc(Cl)c(Cl)c1Cl [I.036] | 3.75^[a] | 
38 | CCOC(=O)C(CC1CC1)NC(=O)c1sc(Cl)c(Cl)c1Cl (stereo not drawn) [I.058] | 4.81^[a] | 
39 | O=C(NC(CO)C(=O)O)c1sc(Cl)c(Cl)c1Cl (stereo not drawn) [I.056] | 1.94^[a] | 
40 | CONC(=O)C1(NC(=O)c2sc(Cl)c(Cl)c2Cl)CC1 [I.055] | 2.14^[a] | 
41 | CCOC(=O)C1(NC(=S)c2sc(Cl)c(Cl)c2Cl)CC1 [I.037] | 4.61^[a] | 
42 | O=C(NC1CCSC1=O)c1sc(Cl)c(Cl)c1Cl (stereo not drawn) [I.023] | 3.17^[a] | 
43 | CCOC(=O)C(NC(=O)c1sc(Cl)c(Cl)c1Cl)C(=O)OCC [I.006] | 4.19^[a] | 
44 | N#CC(NC(=O)c1sc(Cl)c(Cl)c1Cl)c1ccccc1 (stereo not drawn) [I.034] | 3.92^[a] | 

Second part, the compound after the results:

Row | LogP | chromatographic logP (reversed phase HPLC columns, given in the preparation examples, method not marked) | SMILES
45 | 1.70^[a] |  | O=C(CNC(=O)c1sc(Cl)c(Cl)c1Cl)NO [I.148]
46 | 3.65^[a] |  | COC(=O)C1(NC(=O)c2sc(Cl)c(Cl)c2Cl)CC(F)(F)C1 [I.088]
47 | 3.00^[a] |  | COC(=O)C1(NC(=O)c2sc(Cl)c(Cl)c2Cl)CCOCC1 [I.071]
48 | 3.72^[a] |  | N#CC1(NC(=O)c2sc(Cl)c(Cl)c2Cl)CCSCC1 [I.133]
49 | 3.50^[a] |  | COC(=O)C1(NC(=O)c2sc(Cl)c(Cl)c2Cl)CSC1 [I.080]
50 | 5.45^[a] |  | CCSC(=O)C(NC(=O)c1sc(Cl)c(Cl)c1Cl)C(C)C (stereo not drawn) [I.090]
51 | 4.48^[a] |  | COC(=O)C1(NC(=O)c2sc(Cl)c(Cl)c2Cl)CC(C)(C)C1 [I.087]
52 | 4.47^[a] |  | CCOC(=O)C(NC(=O)c1sc(Cl)c(Cl)c1Cl)C(F)(F)F (stereo not drawn) [I.123]
53 | 3.20^[a] |  | CN(C)C(=S)C1(NC(=O)c2sc(Cl)c(Cl)c2Cl)CC1 [I.115]
54 | 2.07^[a] |  | CNC(=O)CNC(=O)c1sc(Cl)c(Cl)c1Cl [I.073]
55 | 5.61^[a] |  | COC(=O)C(NC(=S)c1sc(Cl)c(Cl)c1Cl)C(C)C (stereo not drawn) [I.093]
56 | 2.45^[a] |  | N#CNC(=O)CNC(=O)c1sc(Cl)c(Cl)c1Cl [I.106]
57 | 2.49^[a] |  | O=C(N[C@H]1CCOC1=O)c1sc(Cl)c(Cl)c1Cl [I.121]
58 | 3.43^[a] |  | CCNC(=O)[C@@H](NC(=O)c1sc(Cl)c(Cl)c1Cl)C(C)C [I.094]
59 | 2.93^[a] |  | O=C(NC1CCCCNC1=O)c1sc(Cl)c(Cl)c1Cl (stereo not drawn) [I.125]
60 | 5.84^[a] |  | O=C(NC1(C(=O)OC2CCCCC2)CCC1)c1sc(Cl)c(Cl)c1Cl [I.103]
61 | 3.78^[a] |  | CCOC(=O)CN(C(=O)c1sc(Cl)c(Cl)c1Cl)C1CC1 [I.116]
62 | 2.78^[a] |  | CCOC(=O)[C@H](CO)NC(=O)c1sc(Cl)c(Cl)c1Cl [I.083]
63 | 5.28^[a] |  | CC(C)(C)OC(=O)C1(NC(=O)c2sc(Cl)c(Cl)c2Cl)CCC1 [I.097]
64 | 4.74^[a] |  | CCCOC(=O)C1(NC(=O)c2sc(Cl)c(Cl)c2Cl)CCC1 [I.101]
65 | 2.46^[a] |  | COC(=O)[C@H](CC(=O)O)NC(=O)c1sc(Cl)c(Cl)c1Cl [I.081]
66 | 3.68^[a] |  | CN(C)C(=S)CNC(=O)c1sc(Cl)c(Cl)c1Cl [I.129]
67 | 3.81^[a] |  | CC(C)C(C#N)NC(=O)c1sc(Cl)c(Cl)c1Cl (stereo not drawn) [I.130]
68 | 2.19^[a] |  | COC(=O)[C@H](CCC(N)=O)NC(=O)c1sc(Cl)c(Cl)c1Cl [I.082]
69 | 2.89^[a] |  | CNC(=S)CNC(=O)c1sc(Cl)c(Cl)c1Cl [I.128]

Row | LogP | chromatographic logP (reversed phase HPLC columns, given in the preparation examples, method not marked) | SMILES
70 | 6.17^[a] |  | CCOC(=O)C(NC(=S)c1sc(Cl)c(Cl)c1Cl)C(C)C (stereo not drawn) [I.092]
71 | 4.81^[a] |  | CC(C)(C)OC(=O)C1(NC(=O)c2sc(Cl)c(Cl)c2Cl)CC(F)(F)C1 [I.086]
72 | 5.11^[a] |  | COC(=O)C(C)(Cc1ccccc1)NC(=O)c1sc(Cl)c(Cl)c1Cl (stereo not drawn) [I.122]
73 | 5.20^[a] |  | CCCCOC(=O)C1(NC(=O)c2sc(Cl)c(Cl)c2Cl)CCC1 [I.099]
74 | 3.92^[a] |  | CCOC(=O)C1(NC(=O)c2sc(Cl)c(Cl)c2Cl)CSC1 [I.085]
75 | 5.00^[a] |  | O=C(NC1(C(=O)OCc2ccccc2)CCC1)c1sc(Cl)c(Cl)c1Cl [I.100]
76 | 4.47^[a] |  | CCOC(=O)C(CCSC)NC(=O)c1sc(Cl)c(Cl)c1Cl (stereo not drawn) [I.084]
77 | 2.57^[a] |  | COC(=O)[C@H](CCC(=O)O)NC(=O)c1sc(Cl)c(Cl)c1Cl [I.075]
78 | 2.62^[a] |  | NC(=S)C1(NC(=O)c2sc(Cl)c(Cl)c2Cl)CC1 [I.105]
79 | 3.39^[a] |  | CCOC(=O)C1(NC(=O)c2sc(Cl)c(Cl)c2Cl)CCOCC1 [I.077]
80 | 6.41^[a] |  | N#CC1(NC(=O)c2sc(Cl)c(Cl)c2Cl)CCC(C2CCCCC2)CC1 (stereo not drawn) [I.134]
81 | 2.57^[a] |  | N#CNC(=O)C1(NC(=O)c2sc(Cl)c(Cl)c2Cl)CC1 [I.107]
82 | 4.74^[a] |  | CC(C)OC(=O)C1(NC(=O)c2sc(Cl)c(Cl)c2Cl)CCC1 [I.150]
83 | 3.00^[a] |  | COC(=O)C1(NC(=O)c2sc(Cl)c(Cl)c2Cl)CCOC1 (stereo not drawn) [I.076]
84 | 3.94^[a] |  | COC(=O)C(CCSC(C)=O)NC(=O)c1sc(Cl)c(Cl)c1Cl (stereo not drawn) [I.127]
85 | 3.36^[a] |  | CCNC(=O)SC[C@H](NC(=O)c1sc(Cl)c(Cl)c1Cl)C(=O)OC [I.141]
86 | 3.19^[a] |  | COC(=O)[C@H](Cc1ccccc1)NC(=O)[C@H](CC(=O)O)NC(=O)c1sc(Cl)c(Cl)c1Cl [I.074]
87 | 5.00^[a] |  | N#CC1(NC(=O)c2sc(Cl)c(Cl)c2Cl)CCC(c2ccccc2)CC1 (stereo not drawn) [I.131]
88 | 3.64^[a] |  | COC(=O)CC(C)NC(=O)c1sc(Cl)c(Cl)c1Cl (stereo not drawn) [I.135]
89 | 3.69^[a] |  | COC(=O)C1(NC(=O)c2sc(Cl)c(Cl)c2Cl)CCC1 [I.112]
90 | 3.99^[a] |  | COC(=O)C1(NC(=O)c2sc(Cl)c(Cl)c2Cl)CCC(F)(F)CC1 [I.072]
91 | 3.19^[a] |  | CC(C)(C#N)NC(=O)c1sc(Cl)c(Cl)c1Cl [I.132]
92 | 4.93^[a] |  | O=C(NC1(C(=O)OC2CCC2)CCC1)c1sc(Cl)c(Cl)c1Cl [I.102]
93 | 2.24^[a] |  | O=C(N[C@H]1CCCNC1=O)c1sc(Cl)c(Cl)c1Cl [I.126]

Source: patent publication US20230055705A1, “SUBSTITUTED THIOPHENE CARBOXAMIDES AND DERIVATIVES THEREOF” (Bayer Aktiengesellschaft, priority 2019, published 2023)
